Data from patent US8871767B2, “2-arylimidazo[1,2-B]pyridazine, 2-phenylimidazo[1,2-A]pyridine, and 2-phenylimidazo[1,2-A]pyrazine derivatives” (Hengrui (USA) Ltd., priority 2010, dated 2014).
Like-named read-outs stand apart in the source and are kept apart here.

Key:
[1] = tested on: Hedgehog pathway activation on 10T1/2/Smo#3 cells (C3H10T1/2 cells transfected with human Smoothened receptor); experiment: Hedgehog pathway activation on 10T1/2/Smo#3 cells measured by ALP activity; type: cell-based
Outline: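 Inhibition of alkaline phosphatase induction, read fluorometrically from 4-methylumbelliferyl phosphate conversion, gave IC50 values; CellTiter-Blue tracked viability in parallel. Cells were the human Smo-transfected 10T1/2/Smo#3 pool, stimulated by 10-20% hShh conditioned medium or the Smo agonist SAG (500 nM).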

[2] = tested on: Hedgehog pathway activation (GLi-luciferase reporter) in Shh Light II reporter cells; experiment: Hedgehog pathway activation on Shh Light II reporter cells measured by luciferase activity; type: cell-based
Outline: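 Shh Light II reporter cells carrying a hedgehog-responsive GLi-luciferase reporter were stimulated either with 500 nM SAG, a direct Smoothened agonist, or with conditioned media containing human Sonic Hedgehog (hShh). Test compounds were evaluated for blocking this pathway activation, quantified by luciferase activity. Cell viability was monitored in parallel with the Celltiter-Blue® assay.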

[3] = Mus musculus, C3H 10T1/2, 10T1/2/Smo#3 cells, measured by ALP activity, read-out: ALP (IC50, inhibition of Hedgehog pathway activation)
[4] = Mus musculus, Shh Light II, hShh activation, read-out: Shh (IC50, inhibition of Hedgehog pathway activation)
[5] = Mus musculus, C3H 10T1/2, 10T1/2/Smo#3 cells, hShh activation, ALP activity, read-out: 10T1/2/Smo#3 ALP activity (hShh Activation)
[6] = Mus musculus, Shh Light II, SAG activation (500 nM SAG), read-out: Shh Light II luciferase activity (SAG activation)
[7] = Mus musculus, Shh Light II, hShh activation, read-out: Shh Light II luciferase activity (hShh activation)

## CC(C)(C)C(=O)Nc1cc(-c2cn3nc(C4CC4)ccc3n2)ccc1C(F)(F)F [Example 139, N-(5-(6-cyclopropylimidazo[1,2-b]pyridazin-2-yl)-2-(trifluoromethyl)phenyl)pivalamide]
[1]; [3]
  IC50: 451 nM
[2]; [4]
  IC50: 186 nM

## Cc1ccc(-c2cn3nc(N4CCS(=O)(=O)CC4)ccc3n2)cc1NC(=O)C(C)(C)C [Example 285, N-{5-[6-(1,1-dioxidothiomorpholin-4-yl)imidazo[1,2-b]pyridazin-2-yl]-2-methylphenyl}-2,2-dimethylpropanamide]
[1]; [3]
  IC50: 1010 nM
[2]; [4]
  IC50: 788 nM

## Cc1c(-c2ccccc2)nc2ccc(N3CCNCC3)nn12 [Example 145, 3-methyl-2-phenyl-6-(piperazin-1-yl)imidazo[1,2-b]pyridazine]
[1]; [5]
  IC50: 3000 to 30000 nM
[1]; [3]
  IC50: 4780 nM
[2]; [6]
  IC50: 3000 to 30000 nM
[2]; [4]
  IC50: 5440 nM
[2]; [7]
  IC50: 3000 to 30000 nM

## CC(C)CNc1ccc2nc(-c3ccc(C(F)(F)F)c(NC(=O)C(C)(C)C)c3)cn2n1 [Example 302, N-(5-(6-(isobutylamino)imidazo[1,2-b]pyridazin-2-yl)-2-(trifluoromethyl)phenyl)pivalamide]
[1]; [3]
  IC50: 443 nM
[2]; [4]
  IC50: 522 nM

## CC(C)(C)OC(=O)NC1CCN(c2ccc3nc(-c4ccc(C(F)(F)F)c(NC(=O)C(C)(C)C)c4)cn3n2)C1 (stereo not shown) [Example 297, tert-butyl 1-(2-(3-pivalamido-4-(trifluoromethyl)phenyl)imidazo[1,2-b]pyridazin-6-yl)pyrrolidin-3-ylcarbamate]
[1]; [3]
  IC50: 463 nM
[2]; [4]
  IC50: 452 nM

## CCc1ccc(-c2cn3nc(-c4ccccc4F)ccc3n2)cc1NC(=O)C(C)(C)C [Example 295, N-(2-ethyl-5-(6-(2-fluorophenyl)imidazo[1,2-b]pyridazin-2-yl)phenyl)pivalamide]
[1]; [5]
  IC50: < 300 nM
[1]; [3]
  IC50: 326 nM
[2]; [6]
  IC50: 300 to 3000 nM
[2]; [4]
  IC50: 320 nM
[2]; [7]
  IC50: < 300 nM

## CCOC(=O)Nc1cc(-c2cn3nc(-c4cccnc4C(F)(F)F)ccc3n2)ccc1F [Example 682, ethyl 2-fluoro-5-(6-(2-(trifluoromethyl)pyridin-3-yl)imidazo[1,2-b]pyridazin-2-yl)phenylcarbamate]
[1]; [3]
  IC50: 1740 nM
[2]; [4]
  IC50: 571 nM

## Cc1c(-c2ccccc2)nc2ccc(N3CCN(C(=O)NC4CCCCC4)CC3)nn12 [Example 159, N-cyclohexyl-4-(3-methyl-2-phenylimidazo[1,2-b]pyridazin-6-yl)piperazine-1-carboxamide]
[1]; [3]
  IC50: 435 nM
[2]; [4]
  IC50: 440 nM

## COC(=O)CCCCCCNC(=O)c1ccc(-c2ccc3nc(-c4ccc(C)c(NC(=O)C(C)(C)C)c4)cn3n2)c(C(F)(F)F)c1 [compound 509]
[1]; [5]
  IC50: < 300 nM
[1]; [3]
  IC50: 213 nM
[2]; [6]
  IC50: 300 to 3000 nM
[2]; [4]
  IC50: 158 nM
[2]; [7]
  IC50: < 300 nM

## Cc1ccc(-c2cn3nc(-c4ccc(C(=O)Nc5ccccc5N)cc4)ccc3n2)cc1NC(=O)C(C)(C)C [compound 597]
[1]; [5]
  IC50: < 300 nM
[1]; [3]
  IC50: 285 nM
[2]; [6]
  IC50: < 300 nM
[2]; [4]
  IC50: 39 nM
[2]; [7]
  IC50: < 300 nM

## Cc1ccc(-c2cn3nc(-c4ccc(C(=O)NO)cc4C(F)(F)F)ccc3n2)cc1NC(=O)C(C)(C)C [Example 437, N-hydroxy-4-(2-(4-methyl-3-pivalamidophenyl)imidazo[1,2-b]pyridazin-6-yl)-3-(trifluoromethyl)benzamide]
[1]; [5]
  IC50: < 300 nM
[1]; [3]
  IC50: 150 nM
[2]; [6]
  IC50: < 300 nM
[2]; [4]
  IC50: 71 nM
[2]; [7]
  IC50: < 300 nM

## CN(C)c1cccc(-c2ccc3nc(-c4ccc(C(F)(F)F)c(NC(=O)C(C)(C)C)c4)cn3n2)c1 [Example 256, N-(5-(6-(3-(dimethylamino)phenyl)imidazo[1,2-b]pyridazin-2-yl)-2-(trifluoromethyl)phenyl)pivalamide]
[1]; [3]
  IC50: 446 nM
[2]; [4]
  IC50: 1140 nM

## Cc1ccc(-c2cn3nc(-c4cccnc4C(F)(F)F)ccc3n2)cc1NC(=O)C1CCCN1 (stereo not shown) [Example 645, N-(2-methyl-5-(6-(2-(trifluoromethyl)pyridin-3-yl)imidazo[1,2-b]pyridazin-2-yl)phenyl)pyrrolidine-2-carboxamide]
[1]; [3]
  IC50: 155 nM
[2]; [4]
  IC50: 589 nM

## Cc1ccc(-c2cn3nc(-c4ccc(C(N)=O)cc4C(F)(F)F)ccc3n2)cc1NC(=O)C(C)(C)C [compound 508]
[1]; [5]
  IC50: < 300 nM
[1]; [3]
  IC50: 110 nM
[2]; [6]
  IC50: 300 to 3000 nM
[2]; [4]
  IC50: 92 nM
[2]; [7]
  IC50: < 300 nM

## Cc1ccc(-c2cn3nc(-c4ccc(OCCCCCCC(=O)NO)cc4C(F)(F)F)ccc3n2)cc1NC(=O)C(C)(C)C [Example 417, N-hydroxy-7-(4-(2-(4-methyl-3-pivalamidophenyl)imidazo[1,2-b]pyridazin-6-yl)-3-(trifluoromethyl)phenoxy)heptanamide]
[1]; [5]
  IC50: 3000 to 30000 nM
[2]; [6]
  IC50: 300 to 3000 nM
[2]; [4]
  IC50: 380 nM
[2]; [7]
  IC50: 300 to 3000 nM

## CC(C)(C)C(=O)Nc1cc(-c2cn3cc(-c4cc(C(F)(F)F)ccc4F)ccc3n2)ccc1C(F)(F)F [Example 84, N-(5-(6-(2-fluoro-5-(trifluoromethyl)phenyl)imidazo[1,2-a]pyridin-2-yl)-2-(trifluoromethyl)phenyl)pivalamide]
[1]; [3]
  IC50: 2490 nM
[2]; [4]
  IC50: 1580 nM

## Cc1ccc(-c2cn3nc(N4CC[C@H](O)C4)ccc3n2)cc1NC(=O)C(C)(C)C [Example 346, (S)-N-(5-(6-(3-hydroxypyrrolidin-1-yl)imidazo[1,2-b]pyridazin-2-yl)-2-methylphenyl)pivalamide]
[1]; [5]
  IC50: < 300 nM
[1]; [3]
  IC50: 23 nM
[2]; [6]
  IC50: < 300 nM
[2]; [4]
  IC50: 44 nM
[2]; [7]
  IC50: < 300 nM

## CNC1CCN(c2ccc3nc(-c4ccc(C)c(NC(=O)C(C)(C)C)c4)cn3n2)C1 (stereo not shown) [Example 360, N-(2-methyl-5-(6-(3-(methylamino)pyrrolidin-1-yl)imidazo[1,2-b]pyridazin-2-yl)phenyl)pivalamide]
[1]; 10T1/2/Smo#3 cells, measured by ALP activity, read-out: ALP (IC50, inhibition of Hedgehog pathway activation)
  IC50: 32 nM
[2]; hShh activation, read-out: Shh (IC50, inhibition of Hedgehog pathway activation)
  IC50: 26 nM

## CCOC(=O)CCCCCOc1ccc(C(F)(F)F)c(-c2ccc3nc(-c4ccc(C)c(NC(=O)C(C)(C)C)c4)cn3n2)c1 [Example 424, ethyl 6-(3-(2-(4-methyl-3-pivalamidophenyl)imidazo[1,2-b]pyridazin-6-yl)-4-(trifluoromethyl)phenoxy)hexanoate]
[1]; [3]
  IC50: 4100 nM
[2]; [4]
  IC50: 7460 nM

## CC(C)Oc1ccc(F)c(-c2ccc3nc(-c4ccc(C(F)(F)F)c(NC(=O)C(C)(C)C)c4)cn3n2)c1 [Example 252, N-(5-(6-(2-fluoro-5-isopropoxyphenyl)imidazo[1,2-b]pyridazin-2-yl)-2-(trifluoromethyl)phenyl)pivalamide]
[1]; [3]
  IC50: 392 nM
[2]; [4]
  IC50: 722 nM

## CCc1ccc(-c2cn3nc(-c4cccnc4C(F)(F)F)ccc3n2)cc1NC(=O)C(C)(C)C [Example 352, N-(2-ethyl-5-(6-(2-(trifluoromethyl)pyridin-3-yl)imidazo[1,2-b]pyridazin-2-yl)phenyl)pivalamide]
[1]; [5]
  IC50: < 300 nM
[1]; [3]
  IC50: 14 nM
[2]; [6]
  IC50: < 300 nM
[2]; [4]
  IC50: 11 nM
[2]; [7]
  IC50: < 300 nM

## Cc1c(-c2ccccc2)nc2ccc(NC3CCN(Cc4ccccc4)CC3)nn12 [Example 168, N-(1-benzylpiperidin-4-yl)-3-methyl-2-phenylimidazo[1,2-b]pyridazin-6-amine]
[1]; [5]
  IC50: 300 to 3000 nM
[1]; [3]
  IC50: 2980 nM
[2]; [6]
  IC50: 300 to 3000 nM
[2]; [4]
  IC50: 1920 nM
[2]; [7]
  IC50: 300 to 3000 nM

## CC(C)(C)C(=O)Nc1cc(-c2cn3nc(-c4ccncc4)ccc3n2)ccc1C(F)(F)F [Example 169, N-(5-(6-(pyridin-4-yl)imidazo[1,2-b]pyridazin-2-yl)-2-(trifluoromethyl)phenyl)pivalamide]
[1]; [3]
  IC50: 423 nM
[2]; [4]
  IC50: 710 nM

## CCNS(=O)(=O)c1cc(-c2cn3nc(-c4cccnc4C(F)(F)F)ccc3n2)ccc1Cl [Example 701, 2-chloro-N-ethyl-5-(6-(2-(trifluoromethyl)pyridin-3-yl)imidazo[1,2-b]pyridazin-2-yl)benzenesulfonamide]
[1]; [3]
  IC50: > 10000 nM
[2]; [4]
  IC50: 2620 nM

## Cc1ccc(-c2cn3nc(-c4cccnc4C(F)(F)F)ccc3n2)cc1NC(=O)C1(C)CC1 [compound 518, 1-methyl-N-(2-methyl-5-(6-(2-(trifluoromethyl)pyridin-3-yl)imidazo[1,2-b]pyridazin-2-yl)phenyl)cyclopropanecarboxamide]
[1]; [5]
  IC50: < 300 nM
[1]; [3]
  IC50: 71 nM
[2]; [6]
  IC50: < 300 nM
[2]; [4]
  IC50: 16 nM
[2]; [7]
  IC50: < 300 nM

## Cc1ccc(-c2ccc3nc(-c4ccc(C(F)(F)F)c(NC(=O)C(C)(C)C)c4)cn3n2)nc1 [Example 150, N-(5-(6-(5-methylpyridin-2-yl)imidazo[1,2-b]pyridazin-2-yl)-2-(trifluoromethyl)phenyl)pivalamide]
[1]; [3]
  IC50: 2740 nM
[2]; [4]
  IC50: 1280 nM

## Cc1ccc(-c2cn3nc(-c4c(F)cccc4C(F)(F)F)ccc3n2)cc1NC(=O)C(C)(C)C [Example 397, N-(5-(6-(2-fluoro-6-(trifluoromethyl)phenyl)imidazo[1,2-b]pyridazin-2-yl)-2-methylphenyl)pivalamide]
[1]; [5]
  IC50: < 300 nM
[1]; [3]
  IC50: 315 nM
[2]; [6]
  IC50: < 300 nM
[2]; [4]
  IC50: 73 nM
[2]; [7]
  IC50: < 300 nM

## CCNC1CCN(c2ccc3nc(-c4ccc(C)c(NC(=O)C(C)(C)C)c4)cn3n2)C1 (stereo not shown) [Example 474, N-(5-(6-(3-(ethylamino)pyrrolidin-1-yl)imidazo[1,2-b]pyridazin-2-yl)-2-methylphenyl)pivalamide]
[1]; [3]
  IC50: 34 nM
[2]; [4]
  IC50: 31 nM
